Data published in patent US20020115642A1, “Beta-lactam antibiotics” (priority 2000, published 2002).
Converted amounts (≈) assume the structure as drawn. Like-named read-outs stand apart in the source and are kept apart here.

Assays:
E. cloacae = test: Susceptibility testing (MIC, modified NCCLS method); assay type: cell-based, Enterobacter cloacae
Description: (§1) The NCCLS (National Committee for Clinical Laboratory Standards) method to determine MIC's of antimicrobial compounds was modified for high-throughput screening. All stocks of tested compounds were prepared in either water or in dimethylsulfoxide (DMSO), depending on the solubility. […] Briefly 20 2-fold serial dilutions of testing compounds from the highest concentration were made in a 384-well microtiter plate. Each well was inoculated with testing bacteria in broth to a final concentration of approximately 1-1.5×10^6 cells/ml. Bacterial growth was determined by the increase of optical density at 600 nm using a microplate reader (Tecan SpectraFluor Plus).

E. coli N [1] = test: Inhibition of bacterial growth (IC50, OD600); assay type: cell-based
Description: (§2) Compounds of the invention were tested for their ability to inhibit the growth of β-lactam sensitive and resistant bacteria by contacting samples of such cells with various dilutions of the compositions, incubating the cells at 37° C. in the presence of these compositions and then measuring the number of viable cells present in each sample.
(§3) Two compounds of the invention were tested, Compound (9) and Compound (1l). Incubation of bacterial cells was performed for two time periods, 10 hours and 20 hours. Four E. coli strains were used for the test. These strains were all derived from the strain NovaBlue (NovaGen Inc., Madison, Wis.). E. coli N is a normal, β-lactam sensitive strain. E coli R(Tem1) is a β-lactam resistant strain with a β-lactamase gene on a plasmid. E. coli C(Tem4O-15) is a β-lactam resistant strain with a β-lactam inhibitor resistant β-lactamase gene, and E. coli C(Tem3 1-27) is β-lactam resistant strain with an alternative β-lactam inhibitor resistant β-lactamase gene.
(§4) The various E. coli strains were each treated with dilutions of the compounds of the invention. […] The number of viable cells at each time point was determined by measuring the OD600 of each cell sample.
(§5) After measuring the number of viable cells present, the IC50 for each sample was determined. […] In addition, both compounds were effective at inhibiting the growth of both antibiotic sensitive and resistant bacterial cells.

K. pneumoniae = test: Susceptibility testing (MIC, modified NCCLS method); assay type: cell-based, Klebsiella pneumoniae
Description: as §1

E. aerogenes = test: as above; assay type: cell-based, Enterobacter aerogenes
Description: as §1

E. faecalis = test: as above; assay type: cell-based, Enterococcus faecalis
Description: as §1

Staphylococcus aureus = test: as above; assay type: cell-based
Description: as §1

S. epidermidis = test: as above; assay type: cell-based, Staphylococcus epidermidis; details: Staphylococcus epidermidis, S. epidermidis (5); read-out: GM* MIC (geometric mean)
Description: as §1

[2] = system: S. aureus clinical isolates; test: MIC by agar dilution, recent clinical isolates (UCSD Medical Center); assay type: cell-based, Staphylococcus aureus; details: MRSA (17)
[3] = system: S. aureus clinical isolates; test: as above; assay type: cell-based, Staphylococcus aureus; details: MSSA (14)
Description: Growth of all 14 isolates of MSSA was inhibited by Compound (9) at the lowest tested concentration (0.08 μg/ml) (See Table 6, below).

P. aeruginosa = test: Susceptibility testing (MIC, modified NCCLS method); assay type: cell-based, Pseudomonas aeruginosa
Description: as §1

E coli R(Tem1) = test: Inhibition of bacterial growth (IC50, OD600); assay type: cell-based; details: for IC50 ratio N/R: N versus R (Tem1); for IC50: Cell R (Tem1)
Description: as §2, §3, §4, §5

E. coli C(Tem4O-15) = test: Inhibition of bacterial growth (IC50, OD600); assay type: cell-based; details: for IC50: Cell C (Tem40-15)
Description: as §2, §3, §4, §5

E. coli C(Tem3 1-27) = test: Inhibition of bacterial growth (IC50, OD600); assay type: cell-based; details: for IC50: Cell C (Tem31-27)
Description: as §2, §3, §4, §5

E. coli/TEM-1 = test: Susceptibility testing (MIC, modified NCCLS method); assay type: cell-based, Escherichia coli; details: E. coli/Tem-1
Description: as §1

E. coli N [4] = test: as above; assay type: cell-based, Escherichia coli; details: E. coli (N)
Description: as §1

[5] = read-out: IC50 10 hours, Cell N, 10 hours, 37° C.
[6] = read-out: IC50 10 hours, 10 hours
[7] = read-out: IC50 20 hours, 20 hours

## CC1(C)S[C@@H]2[C@H](NC(=O)[C@H](N)c3ccccc3)C(=O)N2[C@H]1C(=O)O [Ampicillin, ampicillin, reference compound]
E. cloacae; E. cloacae (1)
  MIC range: 31 µg/mL (≈ 88.7 µM)
E. cloacae; Enterobacter cloacae, E. cloacae (1), read-out: GM* MIC (geometric mean)
  MIC: 31 µg/mL (≈ 88.7 µM)
E. coli N [1]; Escherichia coli, 10 h, read-out: IC50 10 hours, Cell N, 10 hours, 37° C.
  IC50: 9.71 µM
E. coli N [1]; Escherichia coli, 20 h, read-out: IC50 20 hours, Cell N, 20 hours
  IC50: 7.47 µM
E. coli N [1]; [5]
  IC50: 7.88 µM
K. pneumoniae; Klebsiella pneumoniae, K. pneumoniae (5), read-out: GM* MIC (geometric mean)
  MIC: 27200 µg/mL (≈ 77800 µM)
E. aerogenes; E. aerogenes (5)
  MIC range: 61 to 7813 µg/mL
E. aerogenes; Klebsiella aerogenes, E. aerogenes (5), read-out: GM* MIC (geometric mean)
  MIC: 488 µg/mL (≈ 1400 µM)

## Cc1onc(-c2ccccc2)c1C(=O)N[C@@H]1C(=O)N2[C@@H]1SC(C)(C)[C@@H]2C(=O)O [Oxacillin, reference compound]
E. faecalis; E. faecalis (7)
  MIC range: >11 µg/mL
E. faecalis; Enterococcus faecalis, E. faecalis (7), read-out: GM* MIC (geometric mean)
  MIC: > 11 µg/mL
Staphylococcus aureus; Staphylococcus aureus, ATCC11632, ATCC 11632, methicillin-sensitive, β-lactamase Neg./Pos., read-out: MIC
  MIC: 0.25 µg/mL (≈ 0.623 µM)
Staphylococcus aureus; Staphylococcus aureus, ATCC13301, ATCC 13301, methicillin-sensitive, β-lactamase Positive, read-out: MIC
  MIC: 0.25 µg/mL (≈ 0.623 µM)
Staphylococcus aureus; Staphylococcus aureus, ATCC14154, ATCC 14154, methicillin-sensitive, β-lactamase Positive, read-out: MIC
  MIC: 0.5 µg/mL (≈ 1.25 µM)
Staphylococcus aureus; Staphylococcus aureus, ATCC33591, ATCC 33591, methicillin-resistant, β-lactamase Positive, read-out: MIC
  MIC: 8 µg/mL (≈ 19.9 µM)
Staphylococcus aureus; Staphylococcus aureus, ATCC33592, ATCC 33592, methicillin-sensitive, β-lactamase Positive, read-out: MIC
  MIC: 2 µg/mL (≈ 4.98 µM)
Staphylococcus aureus; Staphylococcus aureus, ATCC33593, ATCC 33593, methicillin-resistant, β-lactamase Positive, read-out: MIC
  MIC: 8 µg/mL (≈ 19.9 µM)
Staphylococcus aureus; Staphylococcus aureus, ATCC33594, ATCC 33594, methicillin-sensitive, β-lactamase Positive, read-out: MIC
  MIC: 0.25 µg/mL (≈ 0.623 µM)
Staphylococcus aureus; Staphylococcus aureus, ATCC43300, ATCC 43300, methicillin-sensitive, β-lactamase Neg./Pos., read-out: MIC
  MIC: 2 µg/mL (≈ 4.98 µM)
Staphylococcus aureus; Staphylococcus aureus, ATCC700260, ATCC 700260, methicillin-sensitive, β-lactamase Positive, read-out: MIC
  MIC: 0.5 µg/mL (≈ 1.25 µM)
Staphylococcus aureus; Staphylococcus aureus, ATCC700698, ATCC 700698, methicillin-resistant, β-lactamase Negative, read-out: MIC
  MIC: > 32 µg/mL
Staphylococcus aureus; Staphylococcus aureus, ATCC700699, ATCC 700699, methicillin-resistant, β-lactamase Negative, read-out: MIC
  MIC: > 32 µg/mL
Staphylococcus aureus; Staphylococcus aureus, ATCC700787, ATCC 700787, methicillin-resistant, β-lactamase Positive, read-out: MIC
  MIC: > 32 µg/mL
Staphylococcus aureus; Staphylococcus aureus, ATCC700788, ATCC 700788, methicillin-resistant, β-lactamase Positive, read-out: MIC
  MIC: > 32 µg/mL
Staphylococcus aureus; Staphylococcus aureus, ATCC700789, ATCC 700789, methicillin-resistant, β-lactamase Positive, read-out: MIC
  MIC: 32 µg/mL (≈ 79.7 µM)
Staphylococcus aureus; Staphylococcus aureus, MRSA, MRSA tested (7), read-out: Geometric mean of MIC
  MIC: > 21.5 µg/mL
Staphylococcus aureus; Staphylococcus aureus, MSSA, MSSA tested (7), read-out: Geometric mean of MIC
  MIC: 0.55 µg/mL (≈ 1.37 µM)
Staphylococcus aureus; Staphylococcus aureus, S. aureus (14), read-out: Geometric mean of MIC
  MIC: > 3.45 µg/mL
Staphylococcus aureus; Staphylococcus aureus, S. aureus β-lactamase negative (2), read-out: Geometric mean of MIC
  MIC: > 32 µg/mL
Staphylococcus aureus; Staphylococcus aureus, S. aureus β-lactamase positive (12), read-out: Geometric mean of MIC
  MIC: 2.34 µg/mL (≈ 5.83 µM)
S. epidermidis
  MIC: > 7.87 µg/mL

## Cc1nnc(SCC2=C(C(=O)O)N3C(=O)[C@@H](NC(=O)Cn4cnnn4)[C@H]3SC2)s1 [Cefazolin, reference compound]
[2]
  MIC range: 5 µg/mL (≈ 11 µM)
[2]; Staphylococcus aureus
  MIC50: > 5 µg/mL
  MIC90: > 5 µg/mL
[3]
  MIC range: 0.08 to 0.6 µg/mL
[3]; Staphylococcus aureus
  MIC50: 0.16 µg/mL (≈ 0.352 µM)
  MIC90: 0.3 µg/mL (≈ 0.66 µM)

## 3-(2-(2,4-Dichlorophenoxy)-5-chlorophenoxy)methyl-7-(2-thienylacetamido)-1-oxo-3-cephem-4-carboxylate [Compound 11]
P. aeruginosa; P. aeruginosa ATCC 21726
  MIC: >64 µg/mL
P. aeruginosa; P. aeruginosa ATCC 29872
  MIC: >64 µg/mL
Staphylococcus aureus; S. aureus ATCC 700260
  MIC: 0.0078 µg/mL
Staphylococcus aureus; S. aureus ATCC 700699
  MIC: 1 µg/mL
E coli R(Tem1); 10 hours
  IC50 ratio N/R: N/R = 1388x
E coli R(Tem1); 20 hours
  IC50 ratio N/R: N/R = 120x
E coli R(Tem1); [6]
  IC50: 0.00539 µM
E coli R(Tem1); [7]
  IC50: 0.0353 µM
E. coli N [1]; [5]
  IC50: 7.48 µM
E. coli N [1]; read-out: IC50 20 hours, Cell N, 20 hours
  IC50: 4.24 µM
E. coli C(Tem4O-15); 10 hours, line of C (Tem40-15)
  IC50 ratio (C/R or N/C): N/C = 20x
E. coli C(Tem4O-15); 20 hours, line of C (Tem40-15)
  IC50 ratio (given C/R or N/R): N/R = 6.5x
E. coli C(Tem4O-15); [6]
  IC50: 0.369 µM
E. coli C(Tem4O-15); [7]
  IC50: 0.653 µM
E. coli C(Tem3 1-27); 10 hours, line of C (Tem31-27)
  IC50 ratio (C/R or N/C): N/C = 6.7x
E. coli C(Tem3 1-27); 20 hours, line of C (Tem31-27)
  IC50 ratio (given C/R or N/R): N/R = 2.9x
E. coli C(Tem3 1-27); [6]
  IC50: 1.11 µM
E. coli C(Tem3 1-27); [7]
  IC50: 1.48 µM
K. pneumoniae; K. pneumoniae ATCC 700721
  MIC: 4 µg/mL

## O=C(Cc1cccs1)NC1C(=O)N2C(C(=O)O)=C(CC=COc3cc(Cl)ccc3Oc3ccc(Cl)cc3Cl)CSC12 (stereo not drawn) [Compound 24, 3-(1-(2-(2,4-Dichlorophenoxy)-5-chlorophenoxy)-3-propenyl)-7-(2-thienylacetamido)-3-cephem-4-carboxylic acid]
E. cloacae; E. cloacae ATCC 23355
  MIC: 2.07 µg/mL (≈ 3.17 µM)
E. faecalis; E. faecalis ATCC 49757
  MIC: 4.14 µg/mL (≈ 6.35 µM)
E. faecalis; E. faecalis ATCC 700802
  MIC: 8.28 µg/mL (≈ 12.7 µM)
E. coli/TEM-1
  MIC: 0.016 µg/mL (≈ 0.0245 µM)
E. coli N [4]
  MIC: 0.26 µg/mL (≈ 0.399 µM)
P. aeruginosa; P. aeruginosa ATCC 21726
  MIC: >16.6 µg/mL
P. aeruginosa; P. aeruginosa ATCC 29872
  MIC: >16.6 µg/mL
Staphylococcus aureus; S. aureus ATCC 11632
  MIC: 0.065 µg/mL (≈ 0.0997 µM)
Staphylococcus aureus; S. aureus ATCC 33594
  MIC: 0.065 µg/mL (≈ 0.0997 µM)
Staphylococcus aureus; S. aureus ATCC 700260
  MIC: 1e-05 µg/mL (≈ 1.53e-05 µM)
Staphylococcus aureus; S. aureus ATCC 700699
  MIC: 0.032 µg/mL (≈ 0.0491 µM)
K. pneumoniae; K. pneumoniae ATCC 51503
  MIC: 2.07 µg/mL (≈ 3.17 µM)
K. pneumoniae; K. pneumoniae ATCC 700721
  MIC: 2.07 µg/mL (≈ 3.17 µM)
E. aerogenes; E. aerogenes ATCC 35028
  MIC: 4.14 µg/mL (≈ 6.35 µM)

## Cc1nnc(SCC(=O)Nc2ncc(CC(=O)NC3C(=O)N4C(C(=O)O)=C(COc5cc(Cl)ccc5Oc5ccc(Cl)cc5Cl)CSC34)s2)s1 (stereo not drawn) [Compound 47]
E. cloacae; E. cloacae ATCC 23355
  MIC: >32 µg/mL
E. faecalis; E. faecalis ATCC 49757
  MIC: >32 µg/mL
E. faecalis; E. faecalis ATCC 700802
  MIC: >32 µg/mL
E. coli/TEM-1
  MIC: 0.25 µg/mL (≈ 0.307 µM)
E. coli N [4]
  MIC: 2 µg/mL (≈ 2.46 µM)
P. aeruginosa; P. aeruginosa ATCC 21726
  MIC: >32 µg/mL
P. aeruginosa; P. aeruginosa ATCC 29872
  MIC: >32 µg/mL
Staphylococcus aureus; S. aureus ATCC 11632
  MIC: >32 µg/mL
Staphylococcus aureus; S. aureus ATCC 33591
  MIC: 0.125 µg/mL (≈ 0.154 µM)
Staphylococcus aureus; S. aureus ATCC 33594
  MIC: 0.063 µg/mL (≈ 0.0774 µM)
Staphylococcus aureus; S. aureus ATCC 700260
  MIC: 8 µg/mL (≈ 9.83 µM)
Staphylococcus aureus; S. aureus ATCC 700699
  MIC: >32 µg/mL
K. pneumoniae; K. pneumoniae ATCC 51503
  MIC: >32 µg/mL
K. pneumoniae; K. pneumoniae ATCC 700721
  MIC: 8 µg/mL (≈ 9.83 µM)
E. aerogenes; E. aerogenes ATCC 35028
  MIC: >32 µg/mL
